Assay results as given in PubChem BioAssay AID264 (DTP/NCI, 2004).
Where “and” joins values, the source holds several entries; their conditions need not be identical. Equal entries are not always repeated. Results filed as inconclusive are left out.

Test system: nude mice, LX-1 lung xenograft intrarenal, tumor weight T/C
Assay: NCI In Vivo Anticancer Drug Screen. Data for tumor model Human Lung LX-1 Xenograft (intrarenal inoculation) in NU/NU Swiss (nude) mice
Conditions: endpoint: mean tumor weight change, higher = larger tumour
In short: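 Tumor-bearing mice receive test compound or vehicle; tumor size is then measured in each group. The treated value is divided by the vehicle value to give T/C.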

[1] = dose: 75.0 mg/kg/injection, schedule: Q04DX003 (sc), vehicle: saline with Tween-80
[2] = dose: 150.0 mg/kg/injection, schedule: Q04DX003 (sc), vehicle: saline with Tween-80
[3] = dose: 300.0 mg/kg/injection, schedule: Q04DX003 (sc), vehicle: saline with Tween-80
[4] = dose: 600.0 mg/kg/injection, schedule: Q04DX003 (sc), vehicle: saline with Tween-80
[5] = dose: 37.5 mg/kg/injection, schedule: Q04DX003 (sc), vehicle: Klucel (hydroxypropylcellulose) (HPC)
[6] = dose: 75.0 mg/kg/injection, schedule: Q04DX003 (sc), vehicle: Klucel (hydroxypropylcellulose) (HPC)
[7] = dose: 100.0 mg/kg/injection, schedule: Q01DX010 (sc), vehicle: saline
[8] = dose: 400.0 mg/kg/injection, schedule: Q01DX010 (sc), vehicle: saline
[9] = dose: 100.0 mg/kg/injection, schedule: Q04DX003 (sc), vehicle: water
[10] = dose: 12.5 mg/kg/injection, schedule: Q01DX010 (sc), vehicle: dextrose
[11] = dose: 25.0 mg/kg/injection, schedule: Q01DX010 (sc), vehicle: dextrose
[12] = dose: 200.0 mg/kg/injection, schedule: Q04DX003 (sc), vehicle: saline with Tween-80
[13] = dose: 800.0 mg/kg/injection, schedule: Q04DX003 (sc), vehicle: saline with Tween-80
[14] = dose: 100.0 mg/kg/injection, schedule: Q04DX003 (sc), vehicle: saline with Tween-80

Cc1cc(N/N=C/c2ccccn2)nc2ccccc12
T/C (dose: 150.0 mg/kg/injection, schedule: Q04DX003 (sc), vehicle: Klucel (hydroxypropylcellulose) (HPC)): 89 % of control
T/C (dose: 300.0 mg/kg/injection, schedule: Q04DX003 (sc), vehicle: Klucel (hydroxypropylcellulose) (HPC)): 103 % of control
T/C (dose: 600.0 mg/kg/injection, schedule: Q04DX003 (sc), vehicle: Klucel (hydroxypropylcellulose) (HPC)): 115 % of control
T/C (dose: 1200.0 mg/kg/injection, schedule: Q04DX003 (sc), vehicle: Klucel (hydroxypropylcellulose) (HPC)): 98 % of control

Oc1cc2ccccc2c(-c2c(O)c(O)cc3ccccc23)c1O
T/C [1]: 85 % of control
T/C [2]: 108 % of control
T/C [3]: 42 % of control
T/C [4]: 52 % of control

COC12C(COC(N)=O)C3=C(C(=O)C(C)=C(N)C3=O)N1CC1C2N1C (stereo not given)
T/C (dose: 8.0 mg/kg/injection, schedule: Q01DX010 (sc), vehicle: saline): 1 % of control and -17 % of control

O=[n+]1c2ccccc2n([O-])c2ccccc21.[Cl][Ni][Cl]
T/C (dose: 18.75 mg/kg/injection, schedule: Q04DX003 (sc), vehicle: saline with Tween-80): 122 % of control
T/C [1]: 150 % of control and 163 % of control
T/C [2]: 226 % of control

[I][Hg][CH2]C1COC([CH2][Hg][I])CO1 (stereo not given)
T/C [2]: 105 % of control
T/C [3]: 97 % of control
T/C [4]: 80 % of control
T/C (dose: 1200.0 mg/kg/injection, schedule: Q04DX003 (sc), vehicle: saline with Tween-80): 97 % of control

C=CS(C=C)=NS(=O)(=O)c1ccc(C)cc1
T/C (dose: 18.75 mg/kg/injection, schedule: Q04DX003 (sc), vehicle: Klucel (hydroxypropylcellulose) (HPC)): 108 % of control
T/C [5]: 163 % of control
T/C [6]: 71 % of control

CSc1ncnc2c1ncn2C1OC(CO)C(O)C1O (stereo not given)
T/C (dose: 75.0 mg/kg/injection, schedule: Q04DX003 (sc), vehicle: saline + alcohol): 166 % of control
T/C (dose: 150.0 mg/kg/injection, schedule: Q04DX003 (sc), vehicle: saline + alcohol): 22 % of control

CN1CCN(CCCN2c3ccccc3Sc3ccc(C(F)(F)F)cc32)CC1
T/C (dose: 6.25 mg/kg/injection, schedule: Q01DX010 (sc), vehicle: saline): 97 % of control
T/C (dose: 12.5 mg/kg/injection, schedule: Q01DX010 (sc), vehicle: saline): 124 % of control
T/C [7]: 63 % of control and 66 % of control and 87 % of control
T/C [8]: 31 % of control

C(CSC1=NCCN1)CSC1=NCCN1
T/C (dose: 50.0 mg/kg/injection, schedule: Q01DX010 (sc), vehicle: saline): 156 % of control
T/C [7]: 81 % of control

CN(C)CC(Cl)CCl (stereo not given)
T/C (dose: 300.0 mg/kg/injection, schedule: Q04DX003 (sc), vehicle: saline): 49 % of control

CNc1nc(N(C)C)nc(N(C)C)n1
T/C (dose: 12.5 mg/kg/injection, schedule: Q04DX003 (sc), vehicle: water): 177 % of control
T/C (dose: 15.0 mg/kg/injection, schedule: Q01DX010 (ip), vehicle: water): 55 % of control
T/C (dose: 15.0 mg/kg/injection, schedule: Q01DX010 (sc), vehicle: water): 121 % of control
T/C (dose: 30.0 mg/kg/injection, schedule: Q01DX010 (ip), vehicle: water): 287 % of control
T/C (dose: 30.0 mg/kg/injection, schedule: Q01DX010 (sc), vehicle: water): 56 % of control
T/C (dose: 50.0 mg/kg/injection, schedule: Q04DX003 (ip), vehicle: water): 67 % of control
T/C (dose: 60.0 mg/kg/injection, schedule: Q01DX010 (ip), vehicle: water): 71 % of control
T/C (dose: 60.0 mg/kg/injection, schedule: Q01DX010 (sc), vehicle: water): 69 % of control
T/C (dose: 100.0 mg/kg/injection, schedule: Q04DX003 (ip), vehicle: water): 59 % of control
T/C [9]: 114 % of control and 218 % of control
T/C (dose: 120.0 mg/kg/injection, schedule: Q01DX010 (sc), vehicle: water): 64 % of control
T/C (dose: 200.0 mg/kg/injection, schedule: Q04DX003 (ip), vehicle: water): 54 % of control

O=C(O)CC(=O)O.[NH-]CC[NH-].[Pt+2]
T/C [10]: 100 % of control
T/C [11]: 74 % of control
T/C (dose: 50.0 mg/kg/injection, schedule: Q01DX010 (sc), vehicle: dextrose): 74 % of control

O=c1[nH]c(=O)n(C2OC(CO)C(O)C2O)cc1F (stereo not given)
T/C (dose: 9.37 mg/kg/injection, schedule: Q04DX003 (sc), vehicle: saline): 77 % of control
T/C (dose: 18.75 mg/kg/injection, schedule: Q04DX003 (sc), vehicle: saline): 26 % of control

CCC(=O)N(C)[C@@H](C)C(=O)O[C@H]1CC(=O)N(C)c2cc(cc(OC)c2Cl)C/C(C)=C/C=C[C@@H](OC)[C@@]2(O)C[C@H](OC(=O)N2)[C@@H](C)[C@@H]2O[C@@]12C
T/C (dose: 0.13 mg/kg/injection, schedule: Q01DX010 (sc), vehicle: saline + alcohol): 106 % of control
T/C (dose: 0.25 mg/kg/injection, schedule: Q01DX010 (sc), vehicle: saline + alcohol): 31 % of control

COC1C(C)OC(OC2CC(C)(O)Cc3cc4c(c(O)c32)C(=O)c2c(O)cc3c(c2C4=O)OC2OC3(C)C(O)C(N(C)C)C2O)C(OC)C1(C)OC (stereo not given)
T/C (dose: 5.0 mg/kg/injection, schedule: Q04DX003 (sc), vehicle: Klucel (hydroxypropylcellulose) (HPC)): 118 % of control
T/C (dose: 20.0 mg/kg/injection, schedule: Q04DX003 (sc), vehicle: Klucel (hydroxypropylcellulose) (HPC)): 60 % of control
T/C (dose: 40.0 mg/kg/injection, schedule: Q04DX003 (sc), vehicle: Klucel (hydroxypropylcellulose) (HPC)): 98 % of control

O=C1[C@H]2CCC[C@H]2[C@H]2CCC[C@@H]12
T/C [12]: 166 % of control
T/C [13]: 120 % of control
T/C (dose: 1600.0 mg/kg/injection, schedule: Q04DX003 (sc), vehicle: saline with Tween-80): 98 % of control

CC(C)CCCCCCCCCCCCC(=O)NCC(=O)NC1C(O)C(O)C(Nc2ncnc3nc[nH]c23)OC1C(O)CO (stereo not given)
T/C (dose: 0.4 mg/kg/injection, schedule: Q01DX010 (sc), vehicle: saline): 84 % of control
T/C (dose: 0.8 mg/kg/injection, schedule: Q01DX010 (sc), vehicle: saline): 62 % of control
T/C (dose: 1.6 mg/kg/injection, schedule: Q01DX010 (sc), vehicle: saline): 48 % of control

CC(=O)N(C)c1ccc(Nc2cc(C)[nH]c3ccc4ncnc4c23)cc1
T/C (dose: 50.0 mg/kg/injection, schedule: Q04DX003 (sc), vehicle: saline with Tween-80): 101 % of control
T/C [14]: 71 % of control
T/C [12]: 56 % of control

COc1cc2cc[n+](C)c(Cc3ccccc3)c2cc1OC
T/C [5]: 88 % of control
T/C [6]: 115 % of control

CCOC(=O)C(CC(C)C)NC(=O)C(Cc1ccc(N(CCCl)CCCl)cc1)NC(C)=O (stereo not given)
T/C (dose: 12.5 mg/kg/injection, schedule: Q01DX010 (sc), vehicle: saline with Tween-80): 51 % of control
T/C (dose: 25.0 mg/kg/injection, schedule: Q01DX010 (sc), vehicle: saline with Tween-80): 37 % of control
T/C (dose: 50.0 mg/kg/injection, schedule: Q01DX010 (sc), vehicle: saline with Tween-80): 28 % of control

O=c1[nH]cnc2c1ccn2C1OC(CO)C(O)C1O (stereo not given)
T/C (dose: 12.5 mg/kg/injection, schedule: Q04DX003 (sc), vehicle: saline): 88 % of control
T/C (dose: 50.0 mg/kg/injection, schedule: Q04DX003 (sc), vehicle: saline): 47 % of control

CC(C)[NH-].CC(C)[NH-].O.O.[Cl][Pt+2][Cl]
T/C (dose: 3.12 mg/kg/injection, schedule: Q01DX010 (sc), vehicle: dextrose): 62 % of control
T/C (dose: 6.25 mg/kg/injection, schedule: Q01DX010 (sc), vehicle: dextrose): 60 % of control
T/C [10]: 53 % of control
T/C [11]: 64 % of control

O=Cc1ccc(O)c(O)c1
T/C [14]: 172 % of control
T/C [12]: 100 % of control
T/C (dose: 400.0 mg/kg/injection, schedule: Q04DX003 (sc), vehicle: saline with Tween-80): 86 % of control
T/C [13]: 73 % of control

Nc1n[n+](-c2ccc(Cl)cc2)no1
T/C (dose: 25.0 mg/kg/injection, schedule: Q04DX003 (sc), vehicle: water): 102 % of control
T/C [9]: 95 % of control

Nc1ncnc2c1ncn2C1OC(COP(=O)(O)O)C(O)C1O (stereo not given)
T/C [7]: 38 % of control
T/C (dose: 200.0 mg/kg/injection, schedule: Q01DX010 (sc), vehicle: saline): 78 % of control
T/C [8]: 59 % of control
T/C (dose: 800.0 mg/kg/injection, schedule: Q01DX010 (sc), vehicle: saline): 67 % of control
